Among the test systems are MDA-MB-231; HL-60; HOP-62; HCC 2998; OVCAR-4; HT-29; U-251; SNB-75; SW-620; IGROV-1; A549; SK-MEL-28; T47D; SNB-19; LOX IMVI; OVCAR-3; K562; SK-OV-3; MOLT-4; NCI-H522.
Common to all, as to experiment: NCI tumour cell line growth inhibition, 48 h

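Exposure lasted 48 hours, with cells grown in 96-well plates and compounds tested at five concentrations. GI50 is the concentration that inhibits growth by half.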 Calls of active or inactive are those of the source. Cut-off read from the data, not from the text of the source: active = GI50 up to about 1.1 µM and inactive = higher. Where only a bound is given, the exact number is not on record here.

As to `CN(C)CCNc1ccc(CO)c2sc3ccc(O)cc3c(=O)c12`, the GI50 in the experiment with MDA-MB-231 is 1.85 µM (inactive); in the experiment with HL-60, 0.258 µM (active); in the experiment with HOP-62, 0.204 µM (active); in the experiment on HCC 2998, 2.58 µM (inactive); in the experiment on OVCAR-4 it was 4.63 µM (inactive); in the experiment on HT-29 it was 2.3 µM (inactive). The GI50 is 0.783 µM (active) in the experiment on U-251; 2.42 µM (inactive) in the experiment with SNB-75; 1.17 µM (inactive) with SW-620; 3.42 µM (inactive) with IGROV-1; 0.286 µM (active) in the experiment on A549; 7.8 µM (inactive) in the experiment with SK-MEL-28. The GI50 in the experiment with T47D is 1.91 µM (inactive); in the experiment with SNB-19, 2.46 µM (inactive); with LOX IMVI, 1.11 µM (active); in the experiment with OVCAR-3, 10.6 µM (inactive); in the experiment with K562, 2.06 µM (inactive); in the experiment on SK-OV-3, 1.76 µM (inactive). For the same compound, the values for the GI50 in the experiment with MOLT-4 and in the experiment on NCI-H522 were 0.0262 µM (active) and 1.32 µM (inactive), respectively.
As for `CCCCCCCCCCCCCCCCCCOCC(COP(=O)([O-])OCC[N+](C)(C)C)OC` (stereo not given) [EDELFOSINE], the GI50 with MDA-MB-231 is 59.7 µM (inactive); with HL-60, 3.94 µM (inactive); in the experiment on HOP-62, 19.2 µM (inactive); with HCC 2998, 2.38 µM (inactive); in the experiment with OVCAR-4, 26.6 µM (inactive); in the experiment on HT-29, 7.28 µM (inactive). In addition, the GI50 in the experiment on U-251 was 13.6 µM (inactive); with SNB-75, 8.75 µM (inactive); with SW-620, 19.1 µM (inactive); in the experiment on IGROV-1, 6.67 µM (inactive); in the experiment on A549, 21.4 µM (inactive); in the experiment on SK-MEL-28, 41.2 µM (inactive). The GI50 in the experiment with T47D is > 100 µM (inactive); in the experiment on SNB-19 it was 20.7 µM (inactive); with LOX IMVI it was 15.4 µM (inactive); in the experiment with OVCAR-3, 34.3 µM (inactive); with K562, 44.3 µM (inactive); with SK-OV-3 it was 18.2 µM (inactive). Besides, the GI50 is 11.5 µM (inactive) in the experiment with MOLT-4 and 11.4 µM (inactive) in the experiment on NCI-H522.
Turning to `CN(CC(=O)O)Cc1oc(CO)cc(=O)c1O`, the GI50 in the experiment with MDA-MB-231 is > 100 µM (inactive); in the experiment with HL-60, 30 µM (inactive); in the experiment on HOP-62, > 100 µM (inactive); in the experiment with HCC 2998, > 100 µM (inactive); in the experiment with OVCAR-4, > 100 µM (inactive); in the experiment on HT-29 it was > 100 µM (inactive). For the same compound, the GI50 with U-251, in the experiment with SNB-75, in the experiment with SW-620, with IGROV-1, in the experiment with A549 and with SK-MEL-28 was > 100 µM (inactive) throughout. The GI50 in the experiment on T47D, in the experiment on SNB-19, in the experiment on LOX IMVI, in the experiment with OVCAR-3, with K562 and in the experiment on SK-OV-3 was > 100 µM (inactive) in each case. Also, the GI50 in the experiment with MOLT-4 and in the experiment with NCI-H522 was > 100 µM (inactive) throughout.
Regarding `C[C@@H]1CCC([C@@H](C)[C@H]2CC[C@H]3[C@@H]4CC[C@H]5C[C@@H](O)CC[C@]5(C)[C@H]4CC[C@]23C)=NC1`, the GI50 was 30 µM (inactive) in the experiment on MDA-MB-231; 1.36 µM (inactive) in the experiment on HL-60; 13.4 µM (inactive) in the experiment with HOP-62; 6.52 µM (inactive) in the experiment with HCC 2998; 7.46 µM (inactive) in the experiment on OVCAR-4; 2.45 µM (inactive) with HT-29. Further, the GI50 in the experiment with U-251 is 8.63 µM (inactive); with SNB-75, 19.1 µM (inactive); in the experiment on SW-620, 40.8 µM (inactive); in the experiment with IGROV-1, 4.71 µM (inactive); with A549 it was 16.9 µM (inactive); with SK-MEL-28, 20.1 µM (inactive). In addition, the GI50 with T47D was 12.7 µM (inactive); in the experiment with SNB-19, 10.6 µM (inactive); in the experiment on LOX IMVI, 3.15 µM (inactive); in the experiment with OVCAR-3, 20.4 µM (inactive); in the experiment on K562, 3.68 µM (inactive); with SK-OV-3, 30.9 µM (inactive). The GI50 in the experiment with MOLT-4 was 13 µM (inactive); in the experiment with NCI-H522, 3.96 µM (inactive).

For the origin of these results see ChEMBL document CHEMBL1201862, “PubChem BioAssay data set” (2004).
